Common to all, as to assay type: in vivo
Test [1] deals with boll weevil (Anthonomus grandis). Nature of the test: Action on boll weevil (Anthonomus grandis), microtiter plate diet test. As to conditions: 120 h, egg and larval mortality after 5 days, read-out: mortality in comparison with untreated controls. As for the experimental part: For evaluating control of boll weevil (Anthonomus grandis) the test unit consisted of 96-well-microtiter plates containing an insect diet and 5-10 A. grandis eggs.
The compounds were formulated using a solution containing 75% (v/v) water and 25% (v/v) DMSO. Different concentrations of formulated compounds were sprayed onto the insect diet at 5 μl, using a custom built micro atomizer, at two replications.
After application, microtiter plates were incubated at about 25+1° C. and about 75+5% relative humidity for 5 days. Egg and larval mortality was then visually assessed.

Test [2] has as its system Orchid thrips (Dichromothrips corbetti). The test can be described thus: Action on orchid thrips (Dichromothrips corbetti), floral-immersion technique. As to conditions: adult thrips, 72 hours after treatment, read-out: mortality in comparison with untreated controls. As for the experimental part:
Dichromothrips corbetti adults used for bioassay were obtained from a colony maintained continuously under laboratory conditions. For testing purposes, the test compound is diluted in a 1:1 mixture of acetone:water (vol:vol), plus Kinetic® HV at a rate of 0.01% v/v.
Thrips potency of each compound was evaluated by using a floral-immersion technique. All petals of individual, intact orchid flowers were dipped into treatment solution and allowed to dry in Petri dishes. Treated petals were placed into individual re-sealable plastic along with about 20 adult thrips. All test arenas were held under continuous light and a temperature of about 28° C. for duration of the assay. After 3 days, the numbers of live thrips were counted on each petal. The percent mortality was recorded 72 hours after treatment.

The subject of test [3] is Diamond back moth (Plutella xylostella). The test can be described thus: Action on diamond back moth (Plutella xylostella), cabbage leaf dip. As to conditions: foliar, 3rd instar larvae on dipped cabbage leaves, 72 hours after treatment, read-out: mortality in comparison with untreated controls. As for the experimental part:
The active compound is dissolved at the desired concentration in a mixture of 1:1 (v/v) distilled water: acetone. Surfactant (Kinetic® HV) is added at a rate of 0.01% (v/v). The test solution is prepared at the day of use.
Leaves of cabbage were dipped in test solution and air-dried. Treated leaves were placed in petri dishes lined with moist filter paper and inoculated with ten 3rd instar larvae. Mortality was recorded 72 hours after treatment. Feeding damages were also recorded using a scale of 0-100%.

Test [4] has as its system Southern armyworm (Spodoptera eridania), 2nd instar larvae. The test can be described thus: Action on southern armyworm (Spodoptera eridania), 2nd instar larvae, sprayed lima bean plants. As to conditions: 96 h, 2nd instar larvae on lima bean plants, 4 days after treatment, read-out: mortality in comparison with untreated controls. On the procedure: The active compounds were formulated by a Tecan liquid handler in 100% cyclohexanone as a 10,000 ppm solution supplied in tubes. The 10,000 ppm solution was serially diluted in 100% cyclohexanone to make interim solutions. These served as stock solutions for which final dilutions were made by the Tecan in 50% acetone:50% water (v/v) into 10 or 20 ml glass vials. A nonionic surfactant (Kinetic®) was included in the solution at a volume of 0.01% (v/v). The vials were then inserted into an automated electrostatic sprayer equipped with an atomizing nozzle for application to plants/insects.
Lima bean plants (variety Sieve) were grown 2 plants to a pot and selected for treatment at the 1st true leaf stage. Test solutions were sprayed onto the foliage by an automated electrostatic plant sprayer equipped with an atomizing spray nozzle. The plants were dried in the sprayer fume hood and then removed from the sprayer. Each pot was placed into perforated plastic bags with a zip closure. About 10 to 11 armyworm larvae were placed into the bag and the bags zipped closed. Test plants were maintained in a growth room at about 25° C. and about 20-40% relative humidity for 4 days, avoiding direct exposure to fluorescent light (24 hour photoperiod) to prevent trapping of heat inside the bags. Mortality and reduced feeding were assessed 4 days after treatment, compared to untreated control plants.

Test [5] relates to tobacco budworm (Heliothis virescens). Nature of the test: Action on tobacco budworm (Heliothis virescens), microtiter plate diet test. Conditions: 120 h, egg and larval mortality after 5 days, read-out: mortality in comparison with untreated controls. As for the experimental part: For evaluating control of tobacco budworm (Heliothis virescens) the test unit consisted of 96-well-microtiter plates containing an insect diet and 15-25 H. virescens eggs.
The compounds were formulated using a solution containing 75% v/v water and 25% v/v DMSO. Different concentrations of formulated compounds were sprayed onto the insect diet at 10 μl, using a custom-built micro atomizer, at two replications.
After application, microtiter plates were incubated at about 28+1° C. and about 80+5% relative humidity for 5 days. Egg and larval mortality were then visually assessed.

In test [6] the test system is yellow fever mosquito (Aedes aegypti). Nature of the test: whole plant or invertebrate. Conditions: 48 h, larval mortality visually assessed after 2 days, read-out: mortality in comparison with untreated controls. As for the experimental part: For evaluating control of yellow fever mosquito (Aedes aegypti) the test unit consisted of 96-well-microtiter plates containing 200 μl of tap water per well and 5-15 freshly hatched A. aegypti larvae.
The active compounds or mixtures were formulated using a solution containing 75% (v/v) water and 25% (v/v) DMSO. Different concentrations of formulated compounds or mixtures were sprayed onto the insect diet at 2.5 μl using a custom built micro atomizer, at two replications.
For experimental mixtures in these tests identical volumes of both mixing partners at the desired concentrations respectively, were mixed together.
After application, microtiter plates were incubated at 28+1° C., 80+5% RH for 2 days. Larval mortality was then visually assessed.

By mortality is commonly meant the percentage killed.

Molecules are shown by their SMILES.

As for `CC(C)c1ccccc1NC(=S)N/N=C/c1ccc(-c2cc(NCc3ccc(OC(F)(F)F)cc3)n(C)n2)cc1` [Compound C-3, 1-(2-isopropylphenyl)-3-[(E)-[4-[1-methyl-5-[[4-(trifluoromethoxy)phenyl]methylamino]pyrazol-3-yl]phenyl]methyleneamino]thiourea], the mortality at 800 ppm in test [1] is not below 75%; in test [5], not below 75%; in test [6], not below 50%. Further, the mortality at 500 ppm in test [2] and in test [3] was not below 75% each time. In addition, in test [4], the mortality at 300 ppm is not below 75%.
`CC(C)c1ccccc1NC(=S)N/N=C/c1ccc(-c2cc(NC(=N)c3ccc(OC(F)(F)F)cc3)n(C)n2)cc1` [Compound C-5, 1-(2-isopropylphenyl)-3-[(E)-[4-[1-methyl-5-[[4-(trifluoromethoxy)benzenecarboximidoyl]amino]pyrazol-3-yl]phenyl]methyleneamino]thiourea]: the mortality at 800 ppm in test [1] is not below 75%; in test [5] it was not below 75%; in test [6] it was not below 50%. In addition, the mortality at 500 ppm in test [2] and in test [3] was not below 75% each time. The mortality at 300 ppm in test [4] was not below 75%.
For `CC(C)c1ccccc1N1C(=O)CS/C1=N\N=C\c1ccc(-c2cc(NC(=N)c3ccc(OC(F)(F)F)cc3)n(C)n2)cc1` [Compound C-6, N-[5-[4-[(E)-[(Z)-[3-(2-isopropylphenyl)-4-oxo-thiazolidin-2-ylidene]hydrazono]methyl]phenyl]-2-methyl-pyrazol-3-yl]-4-(trifluoromethoxy) benzamidine], the mortality at 800 ppm in test [1] was not below 75%; in test [5] it was not below 75%; in test [6], not below 50%. Besides, the mortality at 500 ppm in test [3] was not below 75%. In test [4], the mortality at 300 ppm is not below 75%.
As to `CC(C)c1ccccc1/N=C1\SCC(=O)N1/N=C/c1ccc(-c2cc(OCc3ccc(OC(F)(F)F)cc3)n(C)n2)cc1` [Compound C-12, (2Z)-2-(2-isopropylphenyl)imino-3-[(E)-[4-[1-methyl-5-[[4-(trifluoromethoxy)phenyl]methoxy]pyrazol-3-yl]phenyl]methyleneamino]thiazolidin-4-one], the mortality at 800 ppm in test [1] was not below 75%; in test [5], not below 75%; in test [6], not below 50%. Further, the mortality at 500 ppm in test [3] was not below 75%. The mortality at 300 ppm in test [4] is not below 75%.
As to `Cc1c(-c2ccc(/C=N/NC(=S)Nc3ccccc3C(C)C)cc2)nn(C)c1NC(=O)c1ccc(C(F)(F)F)cc1` [Compound C-15, N-[5-[4-[(E)-[(2-isopropylphenyl)carbamothioylhydrazono]methyl]phenyl]-2,4-dimethyl-pyrazol-3-yl]-4-(trifluoromethyl)benzamide], the mortality at 800 ppm in test [1] and in test [5] was not below 75% each time. The mortality at 500 ppm in test [2] and in test [3] was not below 75% throughout. The mortality at 300 ppm in test [4] was not below 75%.
As for `CCn1nc(-c2ccc(/C=N/O[C@@H]3O[C@@H](C)[C@H](OC)[C@@H](OC)[C@H]3OC)cc2)cc1NC(=O)c1ccc(OC(F)(F)F)cc1` [Compound C-32, N-[2-ethyl-5-[4-[(E)-[(2S,3R,4R,5S,6S)-3,4,5-trimethoxy-6-methyl-tetrahydropyran-2-yl]oxyiminomethyl]phenyl]pyrazol-3-yl]-4-(trifluoromethoxy)benzamide], the mortality at 800 ppm is not below 75% in test [1], not below 75% in test [5] and not below 50% in test [6]. In test [3], the mortality at 500 ppm is not below 75%. Besides, the mortality at 300 ppm in test [4] is not below 75%.
With `CCn1nc(-c2ccc(NC(=O)O[C@@H]3O[C@@H](C)[C@H](OC)[C@@H](OC)[C@H]3OC)cc2)cc1NC(=O)c1ccc(OC(F)(F)F)cc1` [Compound C-33, [(2S,3R,4R,5S,6S)-3,4,5-trimethoxy-6-methyl-tetrahydropyran-2-yl] N-[4-[1-ethyl-5-[[4-(trifluoromethoxy)benzoyl]amino]pyrazol-3-yl]phenyl]carbamate], the mortality at 800 ppm in test [1] was not below 75%; in test [5], not below 75%; in test [6], not below 50%. Moreover, the mortality at 500 ppm in test [3] is not below 75%.
For `CCn1nc(-c2ccc(NC(=O)O[C@@H]3O[C@@H](C)[C@H](OC)[C@@H](OC)[C@H]3OC)cc2)cc1NCc1ccc(OC(F)(F)F)cc1` [Compound C-40, [(2S,3R,4R,5S,6S)-3,4,5-trimethoxy-6-methyl-tetrahydropyran-2-yl] N-[4-[1-ethyl-5-[[4-(trifluoromethoxy)phenyl]methylamino]pyrazol-3-yl]phenyl]carbamate], the mortality at 800 ppm in test [1] was not below 75%; in test [5] it was not below 75%; in test [6], not below 50%. In addition, the mortality at 500 ppm in test [3] is not below 75%.
With `CC(C)c1ccccc1N1C(=O)CS/C1=N\N=C\c1ccc(-c2cc(C(=O)Nc3ccc(OC(F)(F)F)cc3)n(C)n2)cc1` [Compound C-47, 5-[4-[(E)-[(Z)-[3-(2-isopropylphenyl)-4-oxo-thiazolidin-2-ylidene]hydrazono]methyl]phenyl]-2-methyl-N-[4-(trifluoromethoxy)phenyl]pyrazole-3-carboxamide], the mortality at 500 ppm in test [3] is not below 75%. The mortality at 300 ppm in test [4] is not below 75%. Further, the mortality at 800 ppm in test [5] is not below 75%; in test [6], not below 50%.
Take `CC(C)c1ccccc1NC(=S)N/N=C/c1ccc(-c2cc(NC(=O)c3ccc(OC(F)(F)F)cc3)[nH]n2)cc1` [Compound C-57, N-[3-[4-[(E)-[(2-isopropylphenyl)carbamothioylhydrazono]methyl]phenyl]-1H-pyrazol-5-yl]-4-(trifluoromethoxy)benzamide]: the mortality at 800 ppm in test [1] is not below 75%; in test [5], not below 75%; in test [6], not below 50%. Also, the mortality at 500 ppm in test [2] and in test [3] was not below 75% throughout.
As for `CC(C)c1ccccc1N1C(=O)CS/C1=N\N=C\c1ccc(-c2cc(NC(=O)c3ccc(OC(F)(F)F)cc3)[nH]n2)cc1` [Compound C-58, N-[3-[4-[(E)-[(Z)-[3-(2-isopropylphenyl)-4-oxo-thiazolidin-2-ylidene]hydrazono]methyl]phenyl]-1H-pyrazol-5-yl]-4-(trifluoromethoxy)benzamide], the mortality at 800 ppm in test [1] is not below 75%; in test [5] it was not below 75%; in test [6], not below 50%. For the same compound, the mortality at 500 ppm in test [2] and in test [3] was not below 75% throughout.
As to `CC(C)c1ccccc1NC(=S)N/N=C/c1ccc(-c2nc(NC(=O)c3ccc(OC(F)(F)F)cc3)n(C)n2)cc1` [Compound C-63, N-[5-[4-[(E)-[(2-isopropylphenyl)carbamothioylhydrazono]methyl]phenyl]-2-methyl-1,2,4-triazol-3-yl]-4-(trifluoromethoxy)benzamide], the mortality at 800 ppm in test [1] and in test [5] was not below 75% in each case. The mortality at 500 ppm in test [2] and in test [3] was not below 75% throughout.

For the origin of these results see patent US12528800B2, “Pesticidal compounds” (BASF SE, priority 2018, dated 2026).
